Test results taken from the NIST ThermoML archive (doi:10.1016/j.fluid.2016.10.026).

Conditions: for surface tension liquid-gas: Drop volume; for kinematic viscosity / speed of sound / mass density: Liquid; for kinematic viscosity: Capillary tube (Ostwald / Ubbelohde) method; for speed of sound: Frequency=3 MHz, Sing-around technique in a fixed-path interferometer; for mass density: Vibrating tube method

CC(=O)c1cccs1 [2-acetylthiophene]
Conditions | surface tension liquid-gas [mN/m]
278.15 K | 45.41
280.65 K | 45.14
283.15 K | 44.83
285.65 K | 44.58
288.15 K | 44.31
290.65 K | 44.01
293.15 K | 43.73
295.65 K | 43.46
298.15 K | 43.16
300.65 K | 42.86
303.15 K | 42.59
305.65 K | 42.31
308.15 K | 42.03
310.65 K | 41.72
313.15 K | 41.43

Conditions | kinematic viscosity [m2/s] | mass density [kg/m3] | speed of sound [m/s]
278.15 K, 101 kPa | 3.7e-06 | 1185.43 | 1538.3
280.65 K, 101 kPa | 3.44e-06 | 1183.04 | 1529.7
283.15 K, 100 kPa | – | 1180.61 | –
283.15 K, 101 kPa | 3.21e-06 | 1180.64 | 1521.2
283.15 K, 2000 kPa | – | 1181.78 | –
283.15 K, 5000 kPa | – | 1183.44 | –
283.15 K, 7000 kPa | – | 1184.54 | –
283.15 K, 10000 kPa | – | 1186.17 | –
283.15 K, 15000 kPa | – | 1188.81 | –
283.15 K, 20000 kPa | – | 1191.4 | –
283.15 K, 25000 kPa | – | 1193.92 | –
283.15 K, 30000 kPa | – | 1196.37 | –
283.15 K, 35000 kPa | – | 1198.77 | –
283.15 K, 40000 kPa | – | 1201.11 | –
283.15 K, 45000 kPa | – | 1203.39 | –
285.65 K, 101 kPa | 3e-06 | 1178.25 | 1512.7
288.15 K, 100 kPa | – | 1175.97 | –
288.15 K, 101 kPa | 2.81e-06 | 1175.86 | 1503.9
288.15 K, 2000 kPa | – | 1177.04 | –
288.15 K, 5000 kPa | – | 1178.73 | –
288.15 K, 7000 kPa | – | 1179.85 | –
288.15 K, 10000 kPa | – | 1181.52 | –
288.15 K, 15000 kPa | – | 1184.21 | –
288.15 K, 20000 kPa | – | 1186.85 | –
288.15 K, 25000 kPa | – | 1189.43 | –
288.15 K, 30000 kPa | – | 1191.93 | –
288.15 K, 35000 kPa | – | 1194.37 | –
288.15 K, 40000 kPa | – | 1196.76 | –
288.15 K, 45000 kPa | – | 1199.09 | –
290.65 K, 101 kPa | 2.64e-06 | 1173.47 | 1495
293.15 K, 100 kPa | – | 1171 | –
293.15 K, 101 kPa | 2.51e-06 | 1171.07 | 1486.3
293.15 K, 2000 kPa | – | 1172.28 | –
293.15 K, 5000 kPa | – | 1174.02 | –
293.15 K, 7000 kPa | – | 1175.16 | –
293.15 K, 10000 kPa | – | 1176.85 | –
293.15 K, 15000 kPa | – | 1179.61 | –
293.15 K, 20000 kPa | – | 1182.3 | –
293.15 K, 25000 kPa | – | 1184.93 | –
293.15 K, 30000 kPa | – | 1187.48 | –
293.15 K, 35000 kPa | – | 1189.98 | –
293.15 K, 40000 kPa | – | 1192.41 | –
293.15 K, 45000 kPa | – | 1194.78 | –
293.15 K, 50000 kPa | – | 1197.1 | –
293.15 K, 55000 kPa | – | 1199.35 | –
293.15 K, 60000 kPa | – | 1201.56 | –
293.15 K, 65000 kPa | – | 1203.71 | –
295.65 K, 101 kPa | 2.35e-06 | 1168.68 | 1477.8
298.15 K, 100 kPa | – | 1166.24 | –
298.15 K, 101 kPa | 2.22e-06 | 1166.29 | 1469
298.15 K, 2000 kPa | – | 1167.52 | –
298.15 K, 5000 kPa | – | 1169.28 | –
298.15 K, 7000 kPa | – | 1170.46 | –
298.15 K, 10000 kPa | – | 1172.2 | –
298.15 K, 15000 kPa | – | 1175.02 | –
298.15 K, 20000 kPa | – | 1177.77 | –
298.15 K, 25000 kPa | – | 1180.44 | –
298.15 K, 30000 kPa | – | 1183.06 | –
298.15 K, 35000 kPa | – | 1185.59 | –
298.15 K, 40000 kPa | – | 1188.08 | –
298.15 K, 45000 kPa | – | 1190.5 | –
298.15 K, 50000 kPa | – | 1192.87 | –
298.15 K, 55000 kPa | – | 1195.17 | –
298.15 K, 60000 kPa | – | 1197.42 | –
298.15 K, 65000 kPa | – | 1199.61 | –
300.65 K, 101 kPa | 2.1e-06 | 1163.91 | 1460.5
303.15 K, 100 kPa | – | 1161.59 | –
303.15 K, 101 kPa | 1.99e-06 | 1161.52 | 1451.8
303.15 K, 2000 kPa | – | 1162.77 | –
303.15 K, 5000 kPa | – | 1164.6 | –
303.15 K, 7000 kPa | – | 1165.79 | –
303.15 K, 10000 kPa | – | 1167.56 | –
303.15 K, 15000 kPa | – | 1170.45 | –
303.15 K, 20000 kPa | – | 1173.26 | –
303.15 K, 25000 kPa | – | 1175.98 | –
303.15 K, 30000 kPa | – | 1178.65 | –
303.15 K, 35000 kPa | – | 1181.25 | –
303.15 K, 40000 kPa | – | 1183.77 | –
303.15 K, 45000 kPa | – | 1186.24 | –
303.15 K, 50000 kPa | – | 1188.64 | –
303.15 K, 55000 kPa | – | 1190.99 | –
303.15 K, 60000 kPa | – | 1193.27 | –
303.15 K, 65000 kPa | – | 1195.5 | –
305.65 K, 101 kPa | 1.9e-06 | 1159.13 | 1443.2
308.15 K, 100 kPa | – | 1156.84 | –
308.15 K, 101 kPa | 1.81e-06 | 1156.74 | 1434.8
308.15 K, 2000 kPa | – | 1158.03 | –
308.15 K, 5000 kPa | – | 1159.89 | –
308.15 K, 7000 kPa | – | 1161.11 | –
308.15 K, 10000 kPa | – | 1162.92 | –
308.15 K, 15000 kPa | – | 1165.87 | –
308.15 K, 20000 kPa | – | 1168.75 | –
308.15 K, 25000 kPa | – | 1171.53 | –
308.15 K, 30000 kPa | – | 1174.24 | –
308.15 K, 35000 kPa | – | 1176.89 | –
308.15 K, 40000 kPa | – | 1179.46 | –
308.15 K, 45000 kPa | – | 1181.98 | –
308.15 K, 50000 kPa | – | 1184.43 | –
308.15 K, 55000 kPa | – | 1186.82 | –
308.15 K, 60000 kPa | – | 1189.15 | –
308.15 K, 65000 kPa | – | 1191.41 | –
310.65 K, 101 kPa | 1.72e-06 | 1154.35 | 1426.1
313.15 K, 100 kPa | – | 1152.05 | –
313.15 K, 101 kPa | 1.65e-06 | 1151.96 | 1417.5
313.15 K, 2000 kPa | – | 1153.3 | –
313.15 K, 5000 kPa | – | 1155.19 | –
313.15 K, 7000 kPa | – | 1156.45 | –
313.15 K, 10000 kPa | – | 1158.29 | –
313.15 K, 15000 kPa | – | 1161.33 | –
313.15 K, 20000 kPa | – | 1164.23 | –
